According to US12692238B2, “Substituted pyridazinone herbicides” (FMC CORPORATION, priority 2020, dated 2026):

Columns and labels:
Format in all cases: in vivo
[1] = system: barnyardgrass (Echinochloa crus-galli); assay: Test A preemergence, barnyardgrass; settings: 10 days
In short: (§1)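 Seeds sown in loam–sand blend received a directed soil spray preemergence; postemergence plants at 2 to 10 cm, one- to two-leaf stage, were sprayed. Compounds were formulated in non-phytotoxic solvent with surfactant. After 10 days in greenhouse, injury was rated visually versus untreated controls, 0 (no effect) to 100 (complete control).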

[2] = system: foxtail, giant (giant foxtail, Setaria faberi); assay: Test A preemergence, foxtail, giant; settings: Setaria faberi, pre-emergence, 240 h, 0 to 100 scale, 10 days, read-out: Plant response rating, Foxtail, Giant
In short: as §1

kochia (Bassia scoparia) [3] = assay: Test A preemergence, kochia; settings: Bassia scoparia, pre-emergence, 240 h, 0 to 100 scale, 10 days, read-out: Plant response rating, Kochia
In short: as §1

[4] = system: redroot pigweed (Amaranthus retroflexus); assay: Test A preemergence, redroot pigweed; settings: 0 to 100 scale, 10 days
In short: as §1

[5] = system: ragweed (common ragweed, Ambrosia artemisiifolia); assay: Test A preemergence, ragweed; settings: Ambrosia artemisiifolia, pre-emergence, 240 h, 0 to 100 scale, 10 days, read-out: Plant response rating, Ragweed
In short: as §1

[6] = system: barnyardgrass (Echinochloa crus-galli); assay: Test A postemergence, barnyardgrass; settings: 10 days
In short: as §1

[7] = system: blackgrass (Alopecurus myosuroides); assay: Test A postemergence, blackgrass; settings: Alopecurus myosuroides, post-emergence, 240 h, 10 days, read-out: Plant response rating, Blackgrass
In short: as §1

[8] = system: foxtail, giant (giant foxtail, Setaria faberi); assay: Test A postemergence, foxtail, giant; settings: Setaria faberi, post-emergence, 240 h, 10 days, read-out: Plant response rating, Foxtail, Giant
In short: as §1

kochia (Bassia scoparia) [9] = assay: Test A postemergence, kochia; settings: Bassia scoparia, post-emergence, 240 h, 10 days, read-out: Plant response rating, Kochia
In short: as §1

[10] = system: redroot pigweed (Amaranthus retroflexus); assay: Test A postemergence, redroot pigweed; settings: 10 days
In short: as §1

[11] = system: ragweed (common ragweed, Ambrosia artemisiifolia); assay: Test A postemergence, ragweed; settings: Ambrosia artemisiifolia, post-emergence, 240 h, 10 days, read-out: Plant response rating, Ragweed
In short: as §1

[12] = system: ryegrass, Italian (Italian ryegrass, Lolium multiflorum); assay: Test A postemergence, ryegrass, Italian; settings: Lolium multiflorum, post-emergence, 240 h, 10 days, read-out: Plant response rating, Ryegrass, Italian
In short: as §1

[13] = system: wheat (Triticum aestivum); assay: Test A postemergence, wheat; settings: Triticum aestivum, post-emergence, 240 h, 10 days, read-out: Plant response rating, Wheat
In short: as §1

[14] = system: galium (catchweed bedstraw, Galium aparine); assay: Test A postemergence, galium; settings: Galium, post-emergence, 240 h, 10 days, read-out: Plant response rating, Galium
In short: as §1

[15] = system: barnyardgrass (Echinochloa crus-galli); assay: Test B flooded paddy test, barnyardgrass; settings: Echinochloa crus-galli; 250 g ai/ha, Flood; visually evaluated after 10 to 14 days; read-out: Plant response rating, Barnyardgrass (0 to 100 scale where 0 is no effect and 100 is complete control)
In short: (§2)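 Plants grown to 2-leaf stage; pots flooded 3 cm above soil and compound applied directly into paddy water, depth maintained throughout. After 10 to 14 days in greenhouse, visual rating versus controls on 0–100 scale (0 no effect, 100 complete control).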

[16] = system: ducksalad (Heteranthera limosa); assay: Test B flooded paddy test, ducksalad; settings: Heteranthera limosa; 250 g ai/ha, Flood; visually evaluated after 10 to 14 days; read-out: Plant response rating, Ducksalad (0 to 100 scale where 0 is no effect and 100 is complete control)
In short: as §2

[17] = 31 g ai/ha, postemergence, 0 to 100 scale (0 no effect, 100 complete control)
[18] = Postemergence, 125 g ai/ha, 0 to 100 scale

In the case of `CC(=O)OCOc1c(C)nn(C)c(=O)c1-c1c2cc(C)ccc2cc2ccc(F)cc12` [Compound 24, 5-[(acetyloxy)methoxy]-4-(2-fluoro-7-methyl-9-anthracenyl)-2,6-dimethyl-3(2H)-pyridazinone], the “Plant response rating, Barnyardgrass” value ([1]; 31 g ai/ha, 0 to 100 scale) is reported as 60, the “Plant response rating, Barnyardgrass” value ([1]; 125 g ai/ha, 0 to 100 scale (0 no effect, 100 complete control)) is reported as 90 and the pest or weed control at 31 g/ha ([2]; 31 g ai/ha) is reported as 90%. The pest or weed control at 125 g/ha ([2]; 125 g ai/ha) was 100%, the pest or weed control at 31 g/ha (kochia (Bassia scoparia) [3]; 31 g ai/ha) was 70% and the pest or weed control at 125 g/ha (kochia (Bassia scoparia) [3]; 125 g ai/ha) was 90%. The “Plant response rating, Pigweed, Redroot” value ([4]; 31 g ai/ha) was 100, the “Plant response rating, Pigweed, Redroot” value ([4]; 125 g ai/ha) was 100 and the pest or weed control at 31 g/ha ([5]; 31 g ai/ha) was 90%. The pest or weed control at 125 g/ha ([5]; 125 g ai/ha) was 90%, the “Plant response rating, Barnyardgrass” value [6, 17] was 80 and the “Plant response rating, Barnyardgrass” value [6, 18] was 90. The pest or weed control at 31 g/ha [7, 17] was 0%, the pest or weed control at 125 g/ha [7, 18] was 20% and the pest or weed control at 31 g/ha [8, 17] was 90%. It also gave a pest or weed control at 125 g/ha [8, 18] of 90%, a pest or weed control at 31 g/ha (kochia (Bassia scoparia) [9]; [17]) of 90% and a pest or weed control at 125 g/ha (kochia (Bassia scoparia) [9]; [18]) of 100%. For the same compound, the “Plant response rating, Pigweed, Redroot” value [10, 17] was 100, the “Plant response rating, Pigweed, Redroot” value [10, 18] was 100 and the pest or weed control at 31 g/ha [11, 17] was 80%. It also gave a pest or weed control at 125 g/ha [11, 18] of 100%, a pest or weed control at 31 g/ha [12, 17] of 90% and a pest or weed control at 125 g/ha [12, 18] of 90%. It also gave a plant injury at 31 g/ha [13, 17] of 0%, a plant injury at 125 g/ha [13, 18] of 0% and a pest or weed control at 31 g/ha [14, 17] of 100%. For the same compound, the pest or weed control at 125 g/ha [14, 18] was 100%, the pest or weed control at 250 g/ha [15] was 70% and the pest or weed control at 250 g/ha [16] was 75%.
